The values below come from patent US11242327B2, “Analgesic compounds” (RECURIUM IP HOLDINGS, LLC, priority 2017, dated 2022).

The subject of experiment [1] is male Sprague-Dawley rats. Nature of the experiment: Formalin Paw Test, rat, oral. The experiment is classed as in vivo. The note with it: 30 mg/kg; for Early Phase, seconds of paw licking: early/acute phase (0-10 minutes); for Late Phase, seconds of paw licking: late/tonic phase (10-35 minutes). In short, it runs like this:
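Paw licking recorded every 5 min for 35 min after formalin injection, in groups of 8 non-fasted males: Sprague-Dawley rats (200–225 g) dosed orally or ICR mice (23±3 g) dosed intraperitoneally. Scores are licking-time bins: A <70 s, B 70–165 s, C >165 s.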

The subject of experiment [2] is male Sprague-Dawley rats. Nature of the experiment: Spinal Nerve Ligation (SNL) Neuropathic Pain Test. The experiment is classed as in vivo. To be noted: rat, oral; for 50% response threshold, 1 h: 1 h after administration; for 50% response threshold, 2 h: 2 h after administration; for 50% response threshold, 4 h: 4 h after administration. As for the experimental part:
Neuropathy was induced in non-fasted male Sprague-Dawley rats weighing 75-100 g by surgically ligating the 4th and 5th lumbar spinal nerves (L4 and L5), a procedure also known as spinal nerve ligation (SNL). Animals were placed in individual acrylic chambers on a metal mesh surface and allowed to acclimate to their surroundings for a minimum of 15 minutes before testing. Mechanical sensitivity was assessed using 8 Semmes-Weinstein filaments (Stoelting©; Wood Dale, Ill., USA) with varying stiffness (0.4, 0.6, 1.0, 2.0, 4.0, 6.0, 8.0, and 15 g) according to an up-down method to determine 50% response thresholds. Each filament was presented perpendicular to the plantar surface with sufficient force to cause slight buckling against the paw and held for approximately 6 seconds or until a positive response is noted (paw sharply withdrawn). Testing was initiated with the 2.0 g filament. In the absence of a paw withdrawal response, the next stronger stimulus was presented. In the event of paw withdrawal, the next weaker stimulus was used. This process was repeated until 4 responses after the initial change in response (no response to positive response or positive response to no response) were obtained. […] The 50% response threshold was calculated using the formula: 50% response threshold (g)=(10^(Xf+kδ))/10,000;
Xf=value (in log units) of the final von Frey filament used;
k=tabular value for the pattern of positive/negative responses (See Chaplan, et al. “Quantitative Assessment of Tactile Allodynia in the Rat Paw” J. Neurosci. Meth. 53.1 (1994): 56-63);
[…] =mean difference (in log units) between stimuli.
The mean and standard error of the mean (SEM) were determined for each paw for each treatment group at each time point. Thresholds were determined prior to surgery and again 14 days later. After 14 days, test or control compounds were administered and thresholds were again determined 1, 2, and 4 hours after compound administration. Median response thresholds in compound-treated animals were compared to those in vehicle treated animals to determine anti-allodynic efficacy of test and control compounds. Test compounds were administered orally at concentrations of 10, 30 or 100 mg/kg and gabapentin was administered orally at a concentration of 100 mg/kg. The control group received the vehicle (sterile water). In Table 7, ‘A’ designates a 50% threshold of ≥8 grams, ‘B’ designates a 50% threshold of ≥6 and <8 grams, and ‘C’ designates a 50% threshold of <6 grams.
The results provided in Table 7 are for oral administration in rats.

Experiment [3] has as its target COX-1 (Homo sapiens, UniProt P23219). Nature of the experiment: NSAIDS and Opioid Receptor Test: COX-1. The experiment is classed as biochemical. The note with it: 200 μM. As for the experimental part: (§1) Compounds were screened as DMSO solutions at 10 μM, 100 μM, or 200 μM and values represent percent inhibition of control-specific binding. […] As NSAID and opioid mechanisms of action are precluded, a person of ordinary skill in the art understands that undesirable side effects associated with inhibition of COX receptors in NSAIDs and activation of opiate receptors in opioids can be avoided by compounds described herein. Furthermore, opioids are known to lose their analgesic potency after to continued administration. (See Benyamin, et al. “Opioid Complications and Side Effects” Pain Physician 11 (2008): S105-S120). As the data indicates compounds described herein have a different mechanism action compared to opioids, a person of ordinary skill in the art would appreciate that compounds described herein would not be expected to lose their analgesic potency like opioids after continued admininistration.

In experiment [4] the target is Opiate κ (Homo sapiens, UniProt P41145). Nature of the experiment: NSAIDS and Opioid Receptor Test: Opiate κ. To be noted: 10 μM. The experiment is classed as binding. As for the experimental part:
as §1

The target in experiment [5] is Opiate μ (Homo sapiens, UniProt P35372). Nature of the experiment: NSAIDS and Opioid Receptor Test: Opiate μ. The experiment is classed as binding. The note with it: 10 μM. As to the method:
as §1

The test system of experiment [6] is male Sprague-Dawley rats. Nature of the experiment: Post-Incisional (Brennan) Pain Test. To be noted: rat, oral; for cumulative pain score, 4 h: 4 h post-dosing; for cumulative pain score, 24 h: 24 h post-dosing. The experiment is classed as in vivo. As for the experimental part:
Incisional pain was induced in non-fasted male Sprague-Dawley rats weighing 180-300 g by making a 1-cm plantar incision in the left hind paw and is designed to mimic pain and sensitivity similar to what is reported by patients after surgery. Dosing occurred at the time of incision and spontaneous pain was measured 4 and 24 hours post-dosing using a cumulative pain score. The unrestrained animals were placed on a metal mesh platform and allowed to acclimate for about 15 min/ Each animal was closely observed during a 1-min period repeated every 5 min for 1 h (12 times total). Depending on the position in which the foot was found during the scoring period, a score of 0, 1, or 2 was given. Full weight bearing of the foot (score=0) was present if the skin on the plantar surface of the paw wound was blanched or distorted by the mesh. If the foot was completely off the mesh, or one or more instances of licking or flinching was observed, a score of 2 was recorded and the licking or flinching was noted but not counted. If the plantar surface of the paw touched the mesh without blanching or distorting, a score of 1 was given. The sum of the 12 scores obtained during the 1 h session was calculated (maximum score=24) for each animal. Observations were made during hours 4 and 24. Test articles were administered orally at concentrations of 10, 30 or 100 mg/kg and ketoprofen was administered subcutaneously at a concentration of 10 mg/kg. The control group received the vehicle (sterile water). In Table 6, ‘A’ designates a cumulative pain score of ≤11, ‘B’ designates >11 and ≤16, and ‘C’ designates >16.
The results provided in Table 6 are for oral administration in rats.

Sequence of Opiate κ (P41145 whole entry): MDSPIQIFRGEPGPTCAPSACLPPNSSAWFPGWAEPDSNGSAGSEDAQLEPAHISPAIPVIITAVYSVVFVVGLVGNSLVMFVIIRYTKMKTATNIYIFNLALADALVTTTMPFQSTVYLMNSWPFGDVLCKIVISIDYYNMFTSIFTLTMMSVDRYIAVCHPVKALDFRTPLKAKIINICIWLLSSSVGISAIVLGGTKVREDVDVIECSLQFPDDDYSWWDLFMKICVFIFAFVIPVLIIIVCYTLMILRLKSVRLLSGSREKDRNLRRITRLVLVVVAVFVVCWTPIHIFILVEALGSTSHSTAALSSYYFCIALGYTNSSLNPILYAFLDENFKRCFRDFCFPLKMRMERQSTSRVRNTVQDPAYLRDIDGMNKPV
Sequence of Opiate μ (P35372 whole entry): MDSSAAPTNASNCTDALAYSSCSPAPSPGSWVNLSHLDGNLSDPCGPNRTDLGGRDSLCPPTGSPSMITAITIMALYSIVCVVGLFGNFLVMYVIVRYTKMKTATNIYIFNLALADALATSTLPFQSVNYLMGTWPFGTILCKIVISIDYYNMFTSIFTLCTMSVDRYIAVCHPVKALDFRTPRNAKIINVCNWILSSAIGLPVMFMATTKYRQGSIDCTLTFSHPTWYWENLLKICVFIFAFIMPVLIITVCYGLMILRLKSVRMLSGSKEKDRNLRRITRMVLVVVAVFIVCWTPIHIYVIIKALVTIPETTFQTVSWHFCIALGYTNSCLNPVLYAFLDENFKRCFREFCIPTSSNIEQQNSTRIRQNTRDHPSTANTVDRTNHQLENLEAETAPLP
Sequence of COX-1 (P23219 24-599): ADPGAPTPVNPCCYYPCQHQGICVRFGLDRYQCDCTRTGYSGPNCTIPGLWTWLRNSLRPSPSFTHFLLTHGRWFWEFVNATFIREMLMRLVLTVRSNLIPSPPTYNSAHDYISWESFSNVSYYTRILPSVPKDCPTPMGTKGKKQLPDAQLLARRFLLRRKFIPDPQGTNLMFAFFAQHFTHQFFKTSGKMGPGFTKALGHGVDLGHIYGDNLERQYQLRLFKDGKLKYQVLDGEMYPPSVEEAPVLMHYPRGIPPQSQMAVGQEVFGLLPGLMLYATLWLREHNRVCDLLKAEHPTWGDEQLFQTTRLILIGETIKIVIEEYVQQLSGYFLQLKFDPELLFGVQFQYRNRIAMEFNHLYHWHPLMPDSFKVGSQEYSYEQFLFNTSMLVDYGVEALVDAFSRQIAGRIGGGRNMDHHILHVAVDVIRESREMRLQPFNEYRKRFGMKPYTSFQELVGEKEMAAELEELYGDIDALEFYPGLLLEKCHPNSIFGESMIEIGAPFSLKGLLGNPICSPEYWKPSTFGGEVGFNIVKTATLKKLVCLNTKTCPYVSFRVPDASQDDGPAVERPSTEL

Take `Cc1sc(C23CC(N)(C2)C3)nc1C(F)(F)F.Cl` [Compound 2, 3-(5-Methyl-4-(trifluoromethyl)thiazol-2-yl)bicyclo[1.1.1]pentan-1-amine hydrochloride]: in experiment [1], the “Early Phase, seconds of paw licking” value is on record as “A (<70 seconds of paw licking)” and the “Late Phase, seconds of paw licking” value is listed as “A (<70 seconds of paw licking)”. In addition, in experiment [2] (10 mg/kg), the “50% response threshold, 1 h” value is “C (a 50% threshold of <6 grams)”; the “50% response threshold, 2 h” value is “C (a 50% threshold of <6 grams)”; the “50% response threshold, 4 h” value is “C (a 50% threshold of <6 grams)”. Besides, in experiment [2] (30 mg/kg), the “50% response threshold, 1 h” value was “C (a 50% threshold of <6 grams)”; the “50% response threshold, 2 h” value is “C (a 50% threshold of <6 grams)”; the “50% response threshold, 4 h” value is “C (a 50% threshold of <6 grams)”. Besides, in experiment [2] (100 mg/kg), the “50% response threshold, 1 h” value is on record as “A (a 50% threshold of ≥8 grams)”; the “50% response threshold, 2 h” value is recorded as “A (a 50% threshold of ≥8 grams)”; the “50% response threshold, 4 h” value is “B (a 50% threshold of ≥6 and <8 grams)”. Moreover, the inhibition at 200 µM in experiment [3] worked out at 15%. Also, the inhibition at 10 µM in experiment [4] is -9%. The inhibition at 10 µM in experiment [5] came out at 9%.
Turning to `Cl.NC12CC(c3nc(C(F)(F)F)cs3)(C1)C2` [Compound 1, 3-(4-(Trifluoromethyl)thiazol-2-yl)bicyclo[1.1.1]pentan-1-amine hydrochloride], the “Early Phase, seconds of paw licking” value in experiment [1] is on record as “A (<70 seconds of paw licking)”. Besides, the “Late Phase, seconds of paw licking” value in experiment [1] was “B (>70 and <165 seconds of paw licking)”. Besides, the “cumulative pain score, 4 h” value in experiment [6] (10 mg/kg) is “C (>16)”; in experiment [6] (30 mg/kg) it was “A (a cumulative pain score of ≤11)”; in experiment [6] (100 mg/kg), “A (a cumulative pain score of ≤11)”. Also, the “cumulative pain score, 24 h” value in experiment [6] (10 mg/kg) was “B (>11 and ≤16)”; in experiment [6] (30 mg/kg) it was “A (a cumulative pain score of ≤11)”; in experiment [6] (100 mg/kg) it was “A (a cumulative pain score of ≤11)”. Besides, the “50% response threshold, 1 h” value is “C (a 50% threshold of <6 grams)” in experiment [2] (10 mg/kg); “B (a 50% threshold of ≥6 and <8 grams)” in experiment [2] (30 mg/kg); “A (a 50% threshold of ≥8 grams)” in experiment [2] (100 mg/kg). Also, the “50% response threshold, 2 h” value in experiment [2] (10 mg/kg) was “C (a 50% threshold of <6 grams)”; in experiment [2] (30 mg/kg), “B (a 50% threshold of ≥6 and <8 grams)”; in experiment [2] (100 mg/kg), “A (a 50% threshold of ≥8 grams)”. Moreover, the “50% response threshold, 4 h” value in experiment [2] (10 mg/kg) is “C (a 50% threshold of <6 grams)”; in experiment [2] (30 mg/kg) it was “C (a 50% threshold of <6 grams)”; in experiment [2] (100 mg/kg), “A (a 50% threshold of ≥8 grams)”. Further, the results for the inhibition at 10 µM in experiment [4] and in experiment [5] were -4% and 11%, respectively.
